Laboratory results reported in patent publication US6900024B2, “T cell receptor ligands and methods of using same” (The United States of America as represented by the …, priority 1993, dated 2005).
Ends that are not written are not given here. * marks the point of attachment. long‑chain biotin = O=C(CCCC[C@@H]1SC[C@@H]2NC(=O)N[C@@H]21)NCCCCCC(=O)*

Key:
[1] = tested on: MHC molecules with kss Eβ chains; assay: Peptide binding to cell-associated class II MHC molecules using biotinylated peptides; set-up: species or system mouse
Method: A modified version of the assay described in Busch et al., Int. Immunol., 2, 443-51 (1990), was used to measure peptide binding to cell-associated class II MHC molecules. After extensive washing in phosphate buffered saline (PBS)-1% bovine serum albumin (BSA), 2×10^5 DAP.3 cells or DAP.3 transfectants expressing various EαEβ molecules were incubated at 37° C. in 200 μl of PBS-2% FCS containing the indicated concentration of biotinylated peptide. In the competition experiments competitors were added at the same time as labeled peptide and at the indicated concentrations. After 4 hours, the cells were washed and stained with a sandwich of FITC-avidin (Vector), biotinylated-anti-avidin (Vector), and FITC-avidin (Vector). After washing, the cells were analyzed on a FAScan flow cytometer for fluorescence. Only viable cells were considered in the analysis, as determined by PI staining. The data are expressed as net mean fluorescence intensity (MFI), calculated by subtracting from the actual MFI the MFI obtained by staining in the absence of biotinylated-peptide. Percent inhibition in the competition experiments was calculated as: % of I=(net MFI without competitor−net MFI with competitor)/(net MFI without […]).

3C6 Th1 cells = assay: IL-2 production by 3C6 Th1 cells co-cultured with transfected L cells (CTLL indicator cells); type: cell-based, mouse; settings: L cells expressing MHC molecules with kss Eβ chains
Method: Production of IL-2 and IL-3 in response to L cell transfectants in the presence or absence of added peptide was measured as described in Ronchese et al., Nature, 329, 254-6 (1987b). In brief, 2−5×10^4 T cells were incubated with 2−5×10^4 transfected L cells in the wells of 96-well flat bottom culture plates in 200 μl of complete medium with or without various concentrations of peptide antigen. Supernatants were collected after 24 hours and assayed for IL-2 content using CTLL indicator cells, or for IL-3 content using FDC.1 cells. IL-2 and IL-3 units were calculated as the inverse of the dilution giving 50% of the maximum ^3H-thymidine incorporation by CTLL (IL-2) or FDC.1 (IL-3) cells observed with reference IL-2 and IL-3 preparations. Proliferative responses were measured by assessing ^3H-thymidine incorporation between 48-66 hrs of culture. For experiments in which the data are expressed as “% max” or “% alloresponse”, the actual absolute 100% responses were: IL-2 alloresponse, 10-40 units/ml; IL-3 alloresponse, 100-500 units/ml; IL-2 response to EαEβ^k plus PCC peptide, 150-300 units/ml; IL-3 response to EαEβ^k plus PCC peptide, 1000-10,000 units/ml; IL-2 response to fixed cells bearing EαEβ^k plus PCC peptide, 30-50 units/ml; IL-3 response to fixed cells bearing EαEβ^k plus PCC peptide, 50-200 units/ml. […]

| Substance | binding to MHC molecule with kss chains, competition for binding of biotinylated-DASP ([1]; biotinylated-DASP 25 μM, FIG. 2A) | direct binding of biotinylated peptide to MHC molecules with kss chains ([1]; FIG. 3A) | effect of peptide on alloreactive stimulation of IL-2 production (3C6 Th1 cells) |
| --- | --- | --- | --- |
| HEL 46-61: hen egg lysozyme (HEL) peptide 46-61 | able to bind the MHC molecule with kss chains to a similar extent as the inhibitory PCC 81-104 peptide | – | – |
| HEL 81-96: hen egg lysozyme (HEL) peptide 81-96, with NH2-terminal long-chain biotin in FIG. 3 ({long‑chain biotin}-SALLSSDITASVNCAK; UniProt P00698 99-114, looked up, fragment) | – | bound well to the MHC molecules with kss chains | lacked ability to inhibit alloreactive stimulation of IL-2 production |
